In patent publication US8906906B2, “Viral replication inhibitors” (Katholieke Universiteit Leuven, priority 2009, dated 2014):

Experiments:
[1] = biological target: T1, His6-tagged HIV-1 integrase / flag-LEDGF/p75 interaction (Human immunodeficiency virus type 1 group M subtype B, UniProt P04585); assay: AlphaScreen assay of LEDGF-integrase interaction inhibition; type: binding; details: for inhibition at 100 µM: read-out: % inhibition at 100 μM in IN-LEDGF alphascreen (values marked *); for IC50: compounds tested from 0.1 up to 100 μM
T1 construct: His6-tagged HIV-1 integrase; made in house
Protocol: Alphascreen Assay to Measure the LEDGF-Integrase Interaction Inhibitory Activity of Compounds of the Invention
The AlphaScreen assay was performed according to the manufacturer's protocol (Perkin Elmer, Benelux). Reactions were performed in 25 μl final volume in 384-well Optiwell™ microtiter plates (Perkin Elmer). The reaction buffer contained 25 mM Tris-HCl (pH 7.4), 150 mM NaCl, 1 mM MgCl2, 0.01% (v/v) Tween-20 and 0.1% (w/v) bovine serum albumin. His6-tagged integrase (300 nM final concentration) was incubated with the compounds for 30 min at 4° C. The compounds were added at varying concentrations spanning a wide range from 0.1 up to 100 μM. Afterwards 100 nM flag-LEDGF/p75 was added and incubation was prolonged for an additional hour at 4° C. Subsequently 5 μl of Ni-chelate-coated acceptor beads and 5 μl anti-flag donor beads were added to a final concentration of 20 μg/ml of both beads. Proteins and beads were incubated for 1 h at 30° C. in order to allow association to occur. Exposure of the reaction to direct light was omitted as much as possible and the emission of light from the acceptor beads was measured in the EnVision plate reader (Perkin Elmer, Benelux) and analyzed using the EnVision manager software. IN/DNA binding was analyzed in a similar setting using His6-tagged integrase (1 μM final concentration) and an oligodeoxynucleotide mimicking the IN ELISA oligonucleotide substrate (30 nM final concentration). Counterscreens with JPO2 or PogZ, respectively, were essentially performed as described previously.
Expression and purification of recombinant proteins: His6-tagged HIV-1 integrase, 3×flag-tagged LEDGF/p75, MBP-JPO2 and MBP-PogZ were purified for AlphaScreen applications as described previously 23,25,56.

[2] = Cytotoxicity in mock-infected MT-4 cells (MTT); type: cell-based; details: human, read-out: CC50 in MT4-IIIB (μm)
Protocol: A rapid and automated assay procedure was used for the in vitro evaluation of anti-HIV agents. An HTLV-1 transformed T4-cell line MT-4, which was previously shown to be highly susceptible to and permissive for HIV infection, served as the target cell line. Inhibition of the HIV-induced cytopathogenic effect was used as the end point. The viability of both HIV-and mock-infected cells was assessed spectrophotometrically via in situ reduction of 3-(4,5-dimethylthiazol-2-yl)-2,5-diphenyltetrazolium bromide (MTT). The 50% cytotoxic concentration (CC50 in μg/ml) was defined as the concentration of compound that reduced the absorbance of the mock-infected control sample by 50%. The percent protection achieved by the compound in HIV-infected cells was calculated by the following formula: […]
Examples of inhibition of cell proliferation by particular compounds of formula (I) can be found by looking at the respective CC50 values in the MT-4 cell line.
Cells: MT-4 cells (Miyoshi et al., 1982) were grown and maintained in RPMI 1640 medium supplemented with 10% heat-inactivated fetal calf serum, 2 mM I-glutamine, 0.1% sodium bicarbonate, and 20 æg of gentamicin per ml.

[3] = system: HIV (MT4-IIIB); assay: Anti-HIV activity: inhibition of HIV-induced cytopathogenic effect in MT-4 cells (MTT); type: cell-based; details: Human immunodeficiency virus 1, IIIB

Structure (SMILES) | inhibition at 100 µM [1] | CC50 [2] | IC50 [1] | EC50 [3]
CCCC(C(=O)O)c1c(C)nc(-c2ccccc2)nc1-c1ccc2c(c1)OCCN2C (stereo not drawn) [cpd 86] | 46% | 118 µM |  | 
CCCC(C(=O)O)c1c(C)nc(N2CC(C)CC(C)C2)nc1-c1ccc(C)cc1 (stereo not drawn) [cpd 34] |  | 57 µM | 17.5 µM | 
CCCC(C(=O)O)c1c(C)nc(-c2ccccc2)nc1-c1ccc(C)cc1F (stereo not drawn) [cpd 98] |  | 113 µM | 13.5 µM | 35.9 µM
CCCC(C(=O)O)c1c(C)nc(-c2ccccc2)nc1Cc1ccccc1 (stereo not drawn) [cpd 117] |  | > 250 µM | 6.1 µM | 
CCCC(C(=O)O)c1c(C)nc(-c2ccccc2)nc1-c1ccc(C)cc1OC (stereo not drawn) [cpd 120] | 48% | 124 µM |  | 
CCCC(C(=O)O)c1c(C)nc(N2CCCN(Cc3ccccc3)CC2)nc1-c1ccc(C)cc1 (stereo not drawn) [cpd 44] |  | 7 µM | 11 µM | 
CCCC(C(=O)O)c1c(C)nc(-c2ccccc2)nc1-c1ccc2occc2c1 (stereo not drawn) [cpd 72] |  | 110 µM | 14.7 µM | 46.3 µM
COCCC(C(=O)O)c1c(C)nc(N2CCCCC2)nc1-c1ccc(C)cc1 (stereo not drawn) [cpd 122] |  | > 250 µM | 59.7 µM | 21.5 µM
CCCC(C(=O)O)c1c(C)nc(N2CCC(NC(=O)c3ccccc3)CC2)nc1-c1ccc(C)cc1 (stereo not drawn) [cpd 54] |  | 67 µM | 3.9 µM | 
CCCC(C(=O)O)c1c(C)nc(-c2ccccc2)nc1-c1ccc(C)cc1O (stereo not drawn) [cpd 119] |  | 120 µM | 21.9 µM | 29.4 µM
CCCC(C(=O)O)c1c(C)nc(-c2ccccc2)nc1-c1ccc(C(C)C)cc1 (stereo not drawn) [cpd 106] |  | 32 µM | 56.6 µM | 
CCCC(C(=O)O)c1c(C)nc(N2CCCCCC2)nc1-c1ccc(C)cc1 (stereo not drawn) [cpd 36] |  | 58 µM | 11.2 µM | 
CCCC(C(=O)O)c1c(C)nc(-c2ccccc2)nc1-c1ccc(C)cc1 (stereo not drawn) [cpd 14] |  | 120 µM | 22.1 µM | 23.4 µM
CCCC(C(=O)O)c1c(C)nc(-c2ccc(C)cc2)nc1-c1ccc(C)cc1 (stereo not drawn) [cpd 10] |  | 110 µM | 30.9 µM | 35.9 µM
CCCC(C(=O)O)c1c(C)nc(-c2ccccc2)nc1N1CCCCCC1 (stereo not drawn) [cpd 62] |  | 131 µM | 6.71 µM | 29.8 µM
CCCC(C(=O)O)c1c(C)nc(N2CCCCC2)nc1-c1ccc(C)cc1C (stereo not drawn) [cpd 132] |  | 84.5 µM | 22.9 µM | 30.2 µM
CCCC(C(=O)O)c1c(C)nc(-c2cnn(C)c2)nc1-c1ccc(C)cc1 (stereo not drawn) [cpd 162] |  | > 250 µM |  | 72.1 µM
CCCC(C(=O)O)c1c(C)nc(N2CCCCC2)nc1-c1cc(F)c(F)cc1F (stereo not drawn) [cpd 142] |  | 79 µM | 50.5 µM | 
CCCC(C(=O)O)c1c(C)nc(-c2ccccc2)nc1-c1ccc(Cl)cc1F (stereo not drawn) [cpd 94] |  | 81 µM | 7.25 µM | 19 µM
CCCC(C(=O)O)c1c(C)nc(N2CCc3ccccc32)nc1-c1ccc(C)cc1 (stereo not drawn) [cpd 58] |  | 38.7 µM | 17.9 µM | 2.91 µM
CCCC(C(=O)O)c1c(C)nc(N2CCCCC2)nc1-c1ccc(C)cc1 (stereo not drawn) [cpd 22] |  | 100 µM | 4.74 µM | 9.16 µM
Cc1ccc(-c2nc(N3CCCCC3)nc(C)c2C(CC(C)(C)C)C(=O)O)cc1 (stereo not drawn) [cpd 152] |  | 72 µM | 6.9 µM | 3.48 µM
CCCC(C(=O)O)c1c(C)nc(NCC(C)(C)C)nc1-c1ccc(C)cc1 (stereo not drawn) [cpd 174] |  | 155 µM |  | 25 µM
CCCC(C(=O)O)c1c(C)nc(N2CCCC(C(=O)NCC(C)C)C2)nc1-c1ccc(C)cc1 (stereo not drawn) [cpd 38] |  | 144 µM | 10.9 µM | 5.97 µM
CCCC(C(=O)O)c1c(C)nc(-c2ccccc2)nc1-c1ccc(Cl)cc1OC (stereo not drawn) [cpd 110] | 40% | 94 µM |  | 
Cc1ccc(-c2nc(N3CCCCC3)nc(C)c2C(Cc2ccccc2)C(=O)O)cc1 (stereo not drawn) [cpd 126] |  | 67 µM | 27 µM | 
CCCC(C(=O)O)c1c(C)nc(-c2ccccc2)nc1-c1ccc(C)c(C)c1 (stereo not drawn) [cpd 66] |  | 120 µM | 28.3 µM | 
CCCC(C(=O)O)c1c(C)nc(-c2ccccc2)nc1-c1ccc(C(F)(F)F)cc1 (stereo not drawn) [cpd 108] |  | 47 µM | 100 µM | 

Structure (SMILES) | inhibition at 100 µM [1] | CC50 [2] | IC50 [1] | EC50 [3]
CCCC(C(=O)O)c1c(C)nc(N2CCCCC2)nc1-c1ccc(Cl)cc1F (stereo not drawn) [cpd 146] |  | 72 µM | 10.8 µM | 9.38 µM
CCCC(C(=O)O)c1c(C)nc(-c2ccccc2)nc1-c1ccc2sccc2c1 (stereo not drawn) [cpd 88] |  | 121 µM | 66.7 µM | 
CCCC(C(=O)O)c1c(C)nc(N2CCN(C)CC2)nc1-c1ccc(C)cc1 (stereo not drawn) [cpd 32] |  | > 250 µM | 53.7 µM | 
CCCC(C(=O)O)c1c(C)nc(NCc2ccccc2)nc1-c1ccc(C)cc1 (stereo not drawn) [cpd 168] |  | 128 µM |  | 23.9 µM
CCCC(C(=O)O)c1c(C)nc(-c2ccccc2)nc1-c1ccc(Cl)cc1O (stereo not drawn) [cpd 111] |  | 97 µM | 1.97 µM | 26.4 µM
CCCC(C(=O)O)c1c(C)nc(N2CCCCC2)nc1-c1ccc(C)cc1Cl (stereo not drawn) [cpd 144] |  | 72.5 µM | 5.92 µM | 7.93 µM
CCCC(C(=O)O)c1c(C)nc(-c2ccccc2)nc1-c1ccc2[nH]c(=O)[nH]c2c1 (stereo not drawn) [cpd 100] |  | 96 µM | 70.8 µM | 
CCCC(C(=O)O)c1c(C)nc(N2CC[C@H](N(C)C)C2)nc1-c1ccc(C)cc1 (stereo partly drawn) [cpd 52] |  | 101 µM | 3.62 µM | 
CCCC(C(=O)O)c1c(C)nc(-c2ccccc2Cl)nc1-c1ccc(C)cc1 (stereo not drawn) [cpd 18] |  | 125 µM | 89.9 µM | 
CCCC(C(=O)O)c1c(C)nc(N2CCCC(c3ccccc3)C2)nc1-c1ccc(C)cc1 (stereo not drawn) [cpd 50] |  | 28 µM | 82.2 µM | 
CCCC(C(=O)O)c1c(C)nc(-c2ccccc2)nc1-c1ccc2ccccc2c1 (stereo not drawn) [cpd 68] | 61% | 53 µM |  | 
CCCC(C(=O)O)c1c(C)nc(N(C)C)nc1-c1ccccc1 (stereo not drawn) [cpd 2] |  | 164 µM | 36.7 µM | 
CCCC(C(=O)O)c1c(C)nc(-c2ccccc2)nc1N1CCN(C)CC1 (stereo not drawn) [cpd 64] |  | > 250 µM |  | 197 µM
CCCC(C(=O)O)c1c(C)nc(-c2ccccc2)nc1-c1ccc2c(c1)CCCO2 (stereo not drawn) [cpd 90] |  | 125 µM | 61.9 µM | 
CCCC(C(=O)O)c1c(C)nc(-c2ccccc2)nc1-c1ccccc1 (stereo not drawn) [cpd 24] |  | > 125 µM |  | 80 µM
CCCC(C(=O)O)c1c(C)nc(N2CCCC(Oc3ccccc3)C2)nc1-c1ccc(C)cc1 (stereo not drawn) [cpd 48] |  | 25 µM | 9.49 µM | 
CCCC(C(=O)O)c1c(C)nc(-c2ccccc2)nc1Oc1ccccc1 (stereo not drawn) [cpd 78] | 58% | 102 µM |  | 
CCCC(C(=O)O)c1c(C)nc(N2CCCC(c3nc(C(C)C)no3)C2)nc1-c1ccc(C)cc1 (stereo not drawn) [cpd 46] |  | 42 µM | 80.8 µM | 
CCCC(C(=O)O)c1c(C)nc(-c2ccccc2O)nc1-c1ccc(C)cc1 (stereo not drawn) [cpd 158] |  | 119 µM |  | 17.8 µM
CCCC(C(=O)O)c1c(C)nc(-c2ccccc2)nc1-c1ccc2ccn(C)c2c1 (stereo not drawn) [cpd 92] | 51% | 113 µM |  | 
CCCC(C(=O)O)c1c(C)nc(N2CCc3ccccc3C2)nc1-c1ccc(C)cc1 (stereo not drawn) [cpd 42] |  | 26 µM | 17.3 µM | 
Cc1ccc(-c2nc(N3CCCCC3)nc(C)c2C(OC(C)(C)C)C(=O)O)cc1 (stereo not drawn) [cpd 154] |  | 118 µM |  | 1.06 µM
CCCC(C(=O)O)c1c(C)nc(-c2ccccc2Cl)nc1-c1ccccc1 (stereo not drawn) [cpd 16] |  | > 250 µM |  | 152 µM
CCCC(C(=O)O)c1c(C)nc(-c2ccccc2)nc1N1CCc2ccccc2C1 (stereo not drawn) [cpd 76] |  | 74 µM | 93 µM | 
CCCC(C(=O)O)c1c(C)nc(-c2ccccc2)nc1-c1ccc2c(ccn2C)c1 (stereo not drawn) [cpd 74] | 46% | 129 µM |  | 
CCCC(C(=O)O)c1c(C)nc(-c2ccccc2)nc1-c1cccc(O)c1 (stereo not drawn) [cpd 26] |  | > 125 µM |  | 70.9 µM
CCCC(C(=O)O)c1c(C)nc(/C=C/c2ccccc2)nc1-c1ccccc1 (stereo not drawn) [cpd 6] |  | 98.7 µM | 45.6 µM | 
